The test system of one assay is intracellular cAMP. The assay is described as follows: cAMP enzymatic immunoassay of FRT cell lysates. It is filed as cell-based, rat. The settings on record: compounds 2 μM, 10 minutes, forskolin 0.5 μM. How it is done:
cAMP activity was measured using the BIOTRAK enzymatic immunoassay (Amersham) of FRT cell lysates after incubation with the compounds for 10 minutes in the presence of 0.5 μM forskolin.
(§1) An analysis of compound specificity was also performed.

The target of assay [1] is T1, ΔF508-CFTR (Homo sapiens, UniProt P13569, DEL508-508). The assay is described as follows: Fluorescence (YFP-H148Q/I152L) I− influx assay of ΔF508-CFTR potentiator activity in FRT cells. It is filed as cell-based. The arrangement: expressed in transfected cells. As to conditions: 27° C. 24 h, forskolin 20 μM, read-out: Ka. In outline: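 FRT cells stably co-expressing ΔF508-CFTR and YFP-H148Q/I152L were held at 27 °C for 18–24 h, then given forskolin (20 μM final) and test compounds at 2.5 μM for about 15 min. I− influx rate came from the initial slope of YFP quenching after Cl− was replaced by I−, normalized to total fluorescence.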
T1 sequence (P13569 with tags, fused parts or gaps DEL508-508): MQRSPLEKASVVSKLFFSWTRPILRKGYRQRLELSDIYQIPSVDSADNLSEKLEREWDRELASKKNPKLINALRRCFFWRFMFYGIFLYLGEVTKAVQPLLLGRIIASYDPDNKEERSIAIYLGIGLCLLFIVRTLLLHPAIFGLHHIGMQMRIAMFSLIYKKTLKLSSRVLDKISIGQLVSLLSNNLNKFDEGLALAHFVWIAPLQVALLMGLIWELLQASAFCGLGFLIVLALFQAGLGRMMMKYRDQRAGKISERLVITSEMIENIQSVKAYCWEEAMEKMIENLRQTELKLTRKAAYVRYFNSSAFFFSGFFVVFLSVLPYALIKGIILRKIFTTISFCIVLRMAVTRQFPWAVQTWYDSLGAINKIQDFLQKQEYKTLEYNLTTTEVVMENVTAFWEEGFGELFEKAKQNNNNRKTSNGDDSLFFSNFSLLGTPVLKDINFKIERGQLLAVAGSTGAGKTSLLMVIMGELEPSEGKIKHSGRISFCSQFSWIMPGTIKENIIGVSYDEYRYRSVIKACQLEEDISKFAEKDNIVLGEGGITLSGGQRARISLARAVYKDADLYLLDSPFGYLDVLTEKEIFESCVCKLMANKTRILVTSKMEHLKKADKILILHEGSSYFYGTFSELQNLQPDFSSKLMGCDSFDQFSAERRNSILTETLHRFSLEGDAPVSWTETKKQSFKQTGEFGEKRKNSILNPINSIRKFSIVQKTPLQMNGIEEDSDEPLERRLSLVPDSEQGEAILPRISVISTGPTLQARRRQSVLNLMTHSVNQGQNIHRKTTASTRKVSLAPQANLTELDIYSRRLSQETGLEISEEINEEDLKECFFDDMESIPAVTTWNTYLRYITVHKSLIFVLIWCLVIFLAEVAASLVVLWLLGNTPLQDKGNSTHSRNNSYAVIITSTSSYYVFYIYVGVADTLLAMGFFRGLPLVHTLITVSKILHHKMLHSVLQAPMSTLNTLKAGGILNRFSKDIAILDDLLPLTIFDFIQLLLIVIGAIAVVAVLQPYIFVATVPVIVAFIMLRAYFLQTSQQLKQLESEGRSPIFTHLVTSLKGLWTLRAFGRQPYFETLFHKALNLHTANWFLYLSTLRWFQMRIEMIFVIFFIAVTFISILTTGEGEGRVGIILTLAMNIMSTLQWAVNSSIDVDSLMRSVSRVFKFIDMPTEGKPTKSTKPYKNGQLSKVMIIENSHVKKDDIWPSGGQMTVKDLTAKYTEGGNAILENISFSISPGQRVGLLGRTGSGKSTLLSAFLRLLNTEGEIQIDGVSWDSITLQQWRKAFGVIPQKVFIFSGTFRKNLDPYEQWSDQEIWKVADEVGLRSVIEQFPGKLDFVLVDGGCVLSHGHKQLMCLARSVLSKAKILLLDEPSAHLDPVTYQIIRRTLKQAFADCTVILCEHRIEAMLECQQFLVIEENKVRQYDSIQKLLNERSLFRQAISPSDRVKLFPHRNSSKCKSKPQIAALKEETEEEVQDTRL

Assay [2] deals with T1, ΔF508-CFTR. The assay is described as follows: Cell-attached patch-clamp of ΔF508-CFTR channel activity in FRT cells. It is filed as cell-based. The arrangement: expressed in transfected cells. The settings on record: 100 nM, forskolin 20 μM. How it is done: Experiments were performed in the cell-attached configuration of the patch-clamp technique on FRT cells expressing ΔF508-CFTR. Cells were seeded at a density of 10^4 cells/well and grown at 37° C. for 24-48 hours and then incubated for 24-48 hours at 27° C. to allow trafficking of the ΔF508 protein to the plasma membrane. Borosilicate glass pipettes were fire polished to obtain tip resistances of 2-4 MQ. Currents were sampled at 500 Hz using a patch-clamp amplifier (EPC-7, List, Darmstadt) and low-pass filtered using a 4-pole Bessel filter set at a cutoff frequency of 250 Hz and digitized at 500 Hz using an ITC-16 data translation interface (Instrutech). The extracellular (bath) solution contained (in mM): 150 NaCl, 1 CaCl2, 1 MgCl2, 10 glucose, 10 mannitol, and 10 TES (pH 7.4). The pipette solution contained (in mM): 120 CsCl, 1 MgCl2, 10 TEA-Cl, 0.5 EGTA, 1 Mg-ATP, and 10 Hepes (pH 7.3). Membrane conductances were monitored by alternating the membrane potential between +80 and −100 mV. Current-voltage relationships were generated by applying voltage pulses between −100 and +100 mV in 20 mV steps. Analysis of open channel probability (Po), mean channel open time (To), and mean channel closed time (Tc) was done using recordings of at least three minute intervals (Taddei et al., FEBS Lett. 558:52-56 (2004)). […]
On the technique in general: In patch-clamp work, channel activity is measured electrically.

The subject of assay [3] is UTP/calcium activated Cl− channel. The assay is described as follows: UTP/calcium activated Cl− current, short circuit current in human bronchial epithelial cells. The format is cell-based. As to conditions: pretreatment 2 μM, apical UTP. How it is done:
as §1

Like-named read-outs stand apart in the source and are kept apart here.

Turning to `CC(C)c1ccc(NC(=O)C(c2ccccc2)N(C)C(=O)Cc2c[nH]c3ccccc23)cc1` (centres unmarked) [Compound P-1, 2-[(2-1H-Indol-3-yl-acetyl)-methyl-amino]-N-(4-isopropyl-phenyl)-2-phenyl-acetamide], in the assay on intracellular cAMP, the cAMP level entry was “did not increase cAMP above the level induced by forskolin”. Also, at ΔF508-CFTR [1] (phenylglycine containing compounds), the EC50 was 300 nM. Moreover, at ΔF508-CFTR [2], the ΔF508-CFTR channel activity result was “large increase in channel activity”. Besides, the “effect on magnitude or kinetics of calcium-activated Cl− current” value in assay [3] is “no effect”.
On to `C=CCNC(=O)c1c[nH]c2ccc(S(=O)(=O)N(C)c3ccccc3OCC)cc2c1=O` [Compound S-1, 6-[(2-Ethoxy-phenyl)-methyl-sulfamoyl]-4-oxo-1,4-dihydro-quinoline-3-carboxylic acid allylamide], for which the cAMP level entry in the assay with intracellular cAMP is reported as “did not increase cAMP above the level induced by forskolin”. In addition, at ΔF508-CFTR [1] (sulfonamide containing compounds), the EC50 came to 300 nM. Further, the ΔF508-CFTR channel activity result on ΔF508-CFTR [2] is recorded as “large increase in channel activity”. Besides, the “effect on magnitude or kinetics of calcium-activated Cl− current” value in assay [3] is “no effect”.

For the origin of these results see patent US7939558B2, “Compounds having activity in increasing ion transport by mutant-CFTR and uses thereof” (The Regents of the University of California, priority 2004, dated 2011).
